Results: PMC6588697, “Lugdunin amplifies innate immune responses in the skin in synergy with host- and microbiota-derived factors” (Nature Communications, 2019)
Where “and” joins values, the source holds several entries; their conditions need not be identical. Equal entries are not always repeated.

Tested on: PHKs
Test: Cytokine release into PHK supernatant (LEGENDplex / ELISA)
Type: cell-based, human
Conditions: 5 h, lugdunin 2 µM or Pam2Cys 100 ng/mL, two technical replicates
Experimental: Fig. 1 Lugdunin sensitizes epithelial cells for innate immune defense. a Primary human keratinocytes (PHKs) were pretreated with S. epidermidis conditioned medium (CM), indicated lugdunin concentrations, or the combination of both for 20 h. Subsequently, cells were infected with S. aureus for 1.5 h followed by cell lysis and determination of colony-forming units (CFUs). Shown is one representative experiment of three independent experiments with six technical replicates ± s.e.m. n.s., not significant. b Dorsal skin of mice was pretreated with S. epidermidis CM, 1.5 µg lugdunin alone or in combination with S. epidermidis CM for 24 h. Subsequently, S. aureus CFUs were determined. Horizontal lines represent the mean of each group ± s.e.m. c PHKs were treated with 2 μM lugdunin or with S. epidermidis CM alone or in combination for 20 h and subsequently expression of indicated antimicrobial peptides (AMPs) (respective protein names in brackets) was analyzed and normalized to actin. Shown is one representative experiment of three independent experiments with two technical replicates ± s.e.m. d PHKs were treated with 2 µM lugdunin or 100 ng/mL Pam2Cys for 5 h and subsequently the concentration of indicated cytokines in the supernatant was analyzed by LEGENDplex^TM (BioLegend). Shown is one representative experiment of three independent experiments with two technical replicates ± s.e.m. e PHKs were treated with increasing concentrations of lugdunin or 100 ng/mL Pam2Cys or Pam3Cys for 5 h and subsequently expression of chemokine (C-X-C motif) ligand 8 (CXCL8) was analyzed and normalized to actin. Shown is one representative experiment of three independent experiments, each with two technical replicates ± s.e.m. f, g Indicated cells were treated with 2 µM lugdunin or 100 ng/mL Pam2Cys as a positive control for 5 h and subsequently the concentration of CXCL8 (f) and interleukin-1α (IL-1α) (g) in the supernatant was analyzed by LEGENDplex^TM (BioLegend) and enzyme-linked immunosorbent assay (ELISA) (R&D Systems). Shown is one representative experiment of three independent experiments with two technical replicates ± s.e.m. Significant differences to control treatments were analyzed by ordinary one-way analysis of variance (ANOVA) followed by Dunnett’s multiple comparisons test (*P < 0.05; **P < 0.01; ***P < 0.001; ****P < 0.0001). n.d. = not detected. Source data are provided as a Source Data file
For cytokine analysis from cell cultures, 10 µL of supernatant was used for cytokine analysis via the LEGENDplex^TM human inflammation panel (BioLegend). For cytokine analysis from mouse skin, 4 mm skin punches were cultured in an airlift system where only the dermis had access to medium for 10 h. Skin punches were cultured in RPMI containing 1% FCS (Biochrom/Merck Millipore), 1% penicillin and streptomycin (Gibco/Life Technologies) and 0.25 µg/mL amphotericin B (CELLnTEC). Ten microliters of a 3-fold dilution of culture supernatant was used for cytokine analysis via the LEGENDplex^TM mouse inflammation panel (BioLegend). Samples were acquired in duplicates using a BD LSRII flow cytometer (BD Biosciences) and LEGENDplex^TM Software (BioLegend).
For IL-1α analysis, 100 µL of cell culture supernatant was analyzed via ELISA (R&D Systems) according to manufacturer’s instruction. For MIP-2 analysis, 100 µL of a 5-fold dilution from skin cultures supernatant was used and analyzed via ELISA (R&D Systems) according to the manufacturer’s instruction. For LL-37 ELISA, ELISA plates (Nunc) were coated overnight at 4 °C with 100 µL of cell culture supernatant or 2-fold dilutions of LL-37 starting from 8 µg/mL. The next day, the plate was washed three times using PBS + 0.5% BSA + 0.05% Triton X-100, followed by incubation with 100 µL primary antibody against hCAP18/LL-37 (HycultBiotech, Cat#HM2071, 1:120 in PBS + 0.5% BSA + 0.05% Triton X-100) at 37 °C for 1 h. […]

Lugdunin
219.647 and 222.665: MCP-1 concentration in supernatant (Fig 1d)
0.000: IFN concentration in supernatant (first line IFN, r44) (Fig 1d) | IFN concentration in supernatant (second line IFN, r45) (Fig 1d) | IL-1 concentration in supernatant (first line IL-1, r43) (Fig 1d) | IL-1 concentration in supernatant (second line IL-1, r47) (Fig 1d) | IL-6 concentration in supernatant (Fig 1d) | IL-10 concentration in supernatant (Fig 1d) | IL-12p70 concentration in supernatant (Fig 1d) | IL-18 concentration in supernatant (Fig 1d) | IL-23 concentration in supernatant (Fig 1d) | IL-33 concentration in supernatant (Fig 1d) | TNF concentration in supernatant (Fig 1d)
186.026 and 189.663: CXCL8 concentration in supernatant (Fig 1f)
62.009 and 63.022: CXCL8 concentration in supernatant (LEGENDplex, Fig 1d)
